A word on the CC50: it is the concentration giving 50% cytotoxicity. As a reminder, the pIC50 is the IC50 on a negative log10 scale, so that one unit is a factor of ten.

Data set [1] is described as follows: Cytotoxicity (CC50) in Vero E6 and huh-7 cells. The note with it: African green monkey (Vero E6) and human (huh-7), Vero E6 cells and huh-7 cells. It counts as cell-based.
The test system of the next data set is HCoV-229E. Put plainly: Inhibition of virus-induced cytopathic effect (MTT), HCoV-229E. The note with it: Human coronavirus 229E, CPE inhibition, 100 TCID50, 72–96 h. It is filed as cell-based. On the technique in general: Damage to the host cells serves as the signal in cytopathic effect assays.
The next data set concerns SARS-CoV-2 XBB.1.16. The data set can be described thus: Inhibition of virus-induced cytopathic effect (MTT), SARS-CoV-2 XBB.1.16. The note with it: Severe acute respiratory syndrome coronavirus 2. It counts as cell-based.
A further data set relates to SARS-CoV-2 BQ.1.1.45. The data set can be described thus: Inhibition of virus-induced cytopathic effect (MTT), SARS-CoV-2 BQ.1.1.45. It counts as cell-based. The note with it: Severe acute respiratory syndrome coronavirus 2.
In another data set the test system is SARS-CoV-2 EG.5.1.1. The data set can be described thus: Inhibition of virus-induced cytopathic effect (MTT), SARS-CoV-2 EG.5.1.1. It counts as cell-based. The note with it: Severe acute respiratory syndrome coronavirus 2.
The next data set has as its system HIV. The note with it: compared with emtricitabine (FTC); cited from earlier work.

pIC50: −log10 of the molar value.

In data set [1], `Cc1ccc(CC(=O)OC[C@H]2O[C@@H](n3ccc(NO)nc3=O)[C@H](O)[C@@H]2O)cc1` [SN_14, 5′-O-(4-Methylphenyl)acetyl-N4-hydroxycytidine] had a CC50 of at least 50000 nM. In addition, the pIC50 with HCoV-229E was 4.98; in the data set with SARS-CoV-2 XBB.1.16, 5.67; in the data set with SARS-CoV-2 BQ.1.1.45, 6.15; in the data set with SARS-CoV-2 EG.5.1.1, 5.96.
`COc1cccc(CCC(=O)OC[C@H]2O[C@@H](n3ccc(NO)nc3=O)[C@H](O)[C@@H]2O)c1` [SN_23, 5′-O-3-(3-Methoxyphenyl)propanoyl-N4-hydroxycytidine] had a cytotoxic concentration (CC50) in data set [1] of at least 50000 nM. In addition, the pIC50 was 5.77 in the data set with HCoV-229E, 5.99 with SARS-CoV-2 XBB.1.16, 6.59 with SARS-CoV-2 BQ.1.1.45 and 6.52 in the data set on SARS-CoV-2 EG.5.1.1.
The corresponding values for `O=C(OC[C@H]1O[C@@H](n2ccc(NO)nc2=O)[C@H](O)[C@@H]1O)C1(c2ccccc2)CC1` [SN_20, 5′-O-(1-Phenylcyclopropanoyl-1-carbonyl)-N4-hydroxycytidine] are at least 50000 nM, below 4.00, below 4.00, at most 4.30 and below 4.00.
In turn, `Cc1cccc(OCC(=O)OC[C@H]2O[C@@H](n3ccc(NO)nc3=O)[C@H](O)[C@@H]2O)c1` [SN_22, 5′-O-(3-Methylphenoxy)acetyl-N4-hydroxycytidine] showed a 50% cytotoxic concentration (CC50) in data set [1] of at least 50000 nM. Also, the pIC50 was 5.79 with HCoV-229E, 6.60 in the data set on SARS-CoV-2 XBB.1.16, 6.68 with SARS-CoV-2 BQ.1.1.45 and 6.70 in the data set on SARS-CoV-2 EG.5.1.1.
The corresponding values for `O=C(Cc1ccc(F)cc1)OC[C@H]1O[C@@H](n2ccc(NO)nc2=O)[C@H](O)[C@@H]1O` [SN_18, 5′-O-(4-Fluorophenyl)acetyl-N4-hydroxycytidine] are at least 50000 nM, 4.68, 5.56, 5.92 and 5.75.
The corresponding values for `O=C(COc1ccccc1)OC[C@H]1O[C@@H](n2ccc(NO)nc2=O)[C@H](O)[C@@H]1O` [SN_21, 5′-O-Phenoxyacetyl-N4-hydroxycytidine] are at least 50000 nM, 5.29, 5.89, 6.07 and 6.08.
The corresponding values for `COc1ccc(CC(=O)OC[C@H]2O[C@@H](n3ccc(NO)nc3=O)[C@H](O)[C@@H]2O)cc1` [SN_16, 5′-O-(4-Methoxyphenyl)acetyl-N4-hydroxycytidine] are at least 50000 nM, 5.14, 5.69, 6.15 and 6.25.
As to `COc1cccc(CC(=O)OC[C@H]2O[C@@H](n3ccc(NO)nc3=O)[C@H](O)[C@@H]2O)c1` [SN_15, 5′-O-(3-Methoxyphenyl)acetyl-N4-hydroxycytidine], the CC50 in data set [1] is at least 50000 nM. Besides, the negative-log IC50 (pIC50) is 4.96 with HCoV-229E, 5.68 with SARS-CoV-2 XBB.1.16, 6.13 with SARS-CoV-2 BQ.1.1.45 and 6.28 in the data set with SARS-CoV-2 EG.5.1.1.
The corresponding values for `O=C(Cc1ccccc1F)OC[C@H]1O[C@@H](n2ccc(NO)nc2=O)[C@H](O)[C@@H]1O` [SN_17, 5′-O-(2-Fluorophenyl)acetyl-N4-hydroxycytidine] are at least 50000 nM, 5.10, 5.77, 6.19 and 6.01.
The compound `O=C(Cc1ccccc1Cl)OC[C@H]1O[C@@H](n2ccc(NO)nc2=O)[C@H](O)[C@@H]1O` [SN_19, 5′-O-(2-Chlorophenyl)acetyl-N4-hydroxycytidine] returned a CC50 in data set [1] of at least 50000 nM. For the same compound, the pIC50 in the data set on HCoV-229E was 4.62; in the data set with SARS-CoV-2 XBB.1.16, 5.24; with SARS-CoV-2 BQ.1.1.45 it was 5.63; in the data set on SARS-CoV-2 EG.5.1.1, 5.67.
The corresponding values for `CC(C)C(=O)OC[C@H]1O[C@@H](n2ccc(NO)nc2=O)[C@H](O)[C@@H]1O` [EIDD-2801, Molnupiravir, reference compound] are at least 50000 nM, 5.46, 5.82, 6.51 and 6.28.
Regarding `CCCCCCCCCCCCCC(=O)OC[C@@H]1O[C@H](n2cc(F)c(N)nc2=O)CS1`, the “times higher anti-HIV activity than the parent drug” value in the data set on HIV was 10–24 times.

The values above are taken from PMC10821229, “Synthesis and Antiviral Activity of Novel β-D-N4-Hydroxycytidine Ester Prodrugs as Potential Compounds for the Treatment of SARS-CoV-2 and Other Human Coronaviruses” (Pharmaceuticals, 2023).
